Measurements reported in patent US12622892B2, “Methods for treating endometriosis” (THE TEXAS A&M UNIVERSITY SYSTEM, priority 2020, dated 2026).

Key:
Type in all cases: cell-based, human
ESECT-7 cells [1] = test: Cell proliferation assay (MTT), ESECT-7; conditions: 24 hr; 5-10 μM DIM-C-pPhOH-3-Cl-5-OCH3, 15-25 μM DIM-C-pPhOH; FIG. 2C
Description: (§1) Primary human endometriotic stromal cells from endometriosis patients: Ovarian endometrioma were isolated from endometriosis patients in the proliferative phase following the IRB-approved protocol. Isolated ectopic lesions were digested with collagenase type 3 (300 μg/ml) and DNaseI (40 μg/ml) for 90 min at 37° C., and then tissues were filtered through 150, 100, and 40 μm sieves to isolate endometrial stromal cells. The collected endometrial stromal cells were cultured in DMEM/F12 with 10% FBS plus 1× antibiotic/antimycotic solution and then validated by flow cytometry with a CD90 antibody (a mesenchymal marker). Henceforth, we refer to the stromal cells as ectopic endometrium isolated ovarian endometrioma (ESECT). As the control, primary normal endometrial stromal cells isolated from the biopsy of the eutopic endometrium of normal women (NEM) in the proliferative phase. All cells were incubated at 37° C. in CO2 incubator in an atmosphere of humidified 5% CO2 and 95% air.
(§2) Cell proliferation assay: Patient-derived endometriotic cells ESECT-7 and ESECT-40 were seeded into a 96-well plate, and the cells were then treated for 24 hr with either DMSO or different concentrations of DIM-C-pPhOH and DIM-C-pPhOH-3-Cl-5-OCH3. […] Dimethyl sulfoxide (DMSO) was added and incubated at […] for 10 min, and absorbance was measured at 570 nm.

ESECT-40 cells [2] = test: Cell proliferation assay (MTT), ESECT-40; conditions: 24 hr; 5-10 μM DIM-C-pPhOH-3-Cl-5-OCH3, 15-25 μM DIM-C-pPhOH; FIG. 2C
Description: as §1, §2

NEM cells = test: Cell growth, normal endometrial NEM cells; conditions: 24 hr; 15-25 μM DIM-C-pPhOH, 5-10 μM DIM-C-pPhOH-3-Cl-5-OCH3; vs DMSO control; FIG. 4A
Description: as §1, §2

ESECT-7 cells [3] = test: Western blotting of growth promoting and proapoptotic gene products, ESECT-7
From the text: (§3) Reagents and Antibodies: Annexin V Dead Cell Apoptosis Kit (V13241) was purchased from Invitrogen. The primary antibodies used were EGFR (4267, 1:1000), Survivin (2808, 1:1000), c-Caspase-3 (9661, 1; 1000), c-PARP (9541, 1:1000) from Cell Signaling Technology (Danvers, MA) and c-Myc (sc-40, 1:500), Bcl-2 (sc-509, 1:500) and Bax (sc-20067, 1:500) from Santacruz Biotechnology (Santacruz, CA), NR4A1 (ab109180, 1:3000) and α-SMA (ab32575, 1:3000) from Abcam (Cambridge, MA), β-Actin (A1978, 1:10000) from Sigma Aldrich Corporation (Milwaukee, WI). COL1A1 (GTX112731, 1:2000), CTGF (GTX124232, 1:2000) and FN (GTX112794, 1:2000) from GeneTex, Inc. (Irvine, CA). Secondary antibodies for rabbit (7074), mouse (7076) and Anti-rabbit Alexa Fluor (4412) purchased from Cell Signaling Technology (Danvers, MA). […]
(§4) Western Blotting: ESECT-7 and ESECT-40 cells (2×105) were seeded and allowed to attach for 24 hr, and cells were then treated for 24 hr with either DMSO or different concentrations of DIM-C-pPhOH and DIM-C-pPhOH-3-Cl-5-OCH3. Cells were then lysed and whole-cell lysates were resolved in 10% SDS-PAGE gels and proteins were transferred using PVDF membrane by wet blotting followed by primary and secondary antibody incubation and detected using ECL reagent as described.

ESECT-40 cells [4] = test: Western blotting of growth promoting and proapoptotic gene products, ESECT-40
From the text: as §3, §4

ESECT-40 cells [5] = test: Annexin V staining, ESECT-40; conditions: 10 μM DIM-C-pPhOH-3-Cl-5-OCH3, 25 μM DIM-C-pPhOH, FIG. 3B
Description: Annexin V staining: ESECT-7 and ESECT-40 cells were seeded in Nunc chambered cover glass followed by various drug treatments. The cells were then washed with ice-cold PBS, and 5 μL Alexa Fluor® 488 Annexin V with 100 μg/mL PI (as per the manufacturer's instructions) were added to the cells and incubated for 15 min, and the cells were observed using a Zeiss confocal fluorescence microscope.

ESECT-7 cells [6] = test: α-SMA immunofluorescence, ESECT-7; conditions: vs control, FIG. 5A
Description: Immunofluorescence: ESECT-7 and ESECT-40 cells were seeded in Nunc chambered cover-glass followed by various drug treatments. The cells were fixed with 4% paraformaldehyde in PBS for 20 minutes at 37° C. Cells were then blocked and incubated overnight with primary α-SMA antibody in the buffer (5% bovine serum albumin in PBS) at 4° C., followed by incubation with Alexa Fluor conjugated secondary antibody at a dilution of 1:250 for 2 hours at room temperature. Finally, cells were observed using a Zeiss confocal fluorescence microscope.

COc1cc(C(c2c[nH]c3ccccc23)c2c[nH]c3ccccc23)cc(Cl)c1O [DIM-C-pPhOH-3-Cl-5-OCH3]
growth of ESECT-7 cells (ESECT-7 cells [1]): effectively inhibited the growth
growth of ESECT-40 cells (ESECT-40 cells [2]): effectively inhibited the growth
growth of normal endometrial NEM cells (NEM cells): did not suppress the growth
expression of EGFR and cMyc (ESECT-7 cells [3]; 5-10 μM, 24 hr, FIG. 2D): downregulated
markers of apoptosis (downregulation of survivin and Bcl-2, induced Bax, cleaved PARP and caspase-3) (ESECT-7 cells [3]; Five μM, 24 hours, FIG. 3C): significantly induced several markers of apoptosis
expression of EGFR and cMyc (ESECT-40 cells [4]; 5-10 μM, 24 hr, FIG. 2D): downregulated
markers of apoptosis (downregulation of survivin and Bcl-2, induced Bax, cleaved PARP and caspase-3) (ESECT-40 cells [4]; Five μM, 24 hours, FIG. 3C): significantly induced several markers of apoptosis
Annexin V staining (apoptosis) (ESECT-40 cells [5]): significantly induced
expression of SMA levels (ESECT-7 cells [6]): decreased expression of SMA levels
